Source: patent US12465605B2, “Methods and materials for gender-dependent treatment of cardiovascular dysfunction” (Mayo Foundation for Medical Education and Research, priority 2019, dated 2025)

Experiments:
canonical BMP signaling = assay: BMP2-induced signaling in aortic valve interstitial cells; assay type: cell-based, mouse; settings: cells treated with BMP2 with or without ataciguat
Description: To confirm that ataciguat effectively activated sGC in cells, mouse aortic valve interstitial cells (mVICs) were isolated from C57BL6/J mice treated with ataciguat or other sGC agonists as internal controls. […] To determine whether ataciguat could attenuate signaling cascades central to the initiation and progression of valve calcification in vitro, cells were treated with BMP2 with or without ataciguat. In these studies, ataciguat reduced phospho-SMAD1/5/8 signaling (e.g., canonical BMP signaling) as well as expression of osteogenic genes induced by BMP2 (e.g., osterix).

[1] = tested on: ldlr^−/−/apoB^100/100 mice; assay: ldlr-deficient, apoB100-only mice on western diet with established aortic valve disease (FCAVS); assay type: in vivo, mouse; settings: for relative collagen fiber thicknesses: picrosirius red
Source text: Pre-clinical animal studies: ldlr^−/−/apoB^100/100 mice are low density lipoprotein receptor-deficient, apolipoprotein B100-only mice that consistently develop severe, hemodynamically significant calcific aortic valve stenosis. Thus, these mice develop stenosis in a manner suitable for studying the effects of pharmacological interventions on initiation and progression of calcific aortic valve stenosis.
Two groups of ldlr^−/−/apoB^100/100 mice were placed on Western Diet (WD) for six months, a time point that allowed the mice to develop mild-to-moderate valvular stenosis. At the six-month time point, mice were randomized into two groups: • (1) continued western diet (WD)/continued disease progression group, or • (2) continued western diet+ataciguat in food (WD+ATA)/treatment group.
At the nine-month time point, mice underwent echocardiography (high resolution ultrasound) and blood pressure (tail cuff) measurement, and were sacrificed for tissue and molecular analyses of valvular tissue (histology, immunohistochemistry, quantitative real-time RT-PCR).
A therapeutically-relevant treatment strategy in which ldlr-deficient, apoB100-only mice were fed a western diet for six months (to develop mild/moderate FCAVS) followed by western diet plus ataciguat (150 ppm mixed in food).

[2] = tested on: patients with mild-to-moderate calcific aortic valve stenosis; assay: Phase I clinical trial, 14 days, blood pressure and orthostatic tolerance; assay type: in vivo, human
Source text: Phase I clinical trial design: Patients with mild-to-moderate calcific aortic valve stenosis (valve area between 1.0 cm^2 and 2.0 cm^2) with well-preserved left ventricular function (ejection fraction>50%) were recruited for participation in a randomized, double-blind, placebo-controlled trial. After screening, patients were randomized into two groups: • (1) placebo treatment for 14 days, or • (2) ataciguat treatment for 14 days. Patients underwent a series of tests to assess baseline blood pressure (seated and supine body positions), orthostatic tolerance (transition to standing, tilt table testing), and blood tests to assess liver enzyme function.
Combining ataciguat's role as an activator of heme-free sGC with reports of increased systemic oxidative stress in patients with FCAVS (Mourino-Alvarez et al., Int. J Cardiol., 225:99-106 (2016)), it was conceivable that administration of ataciguat could elicit acute hypotension or increase propensity to experience orthostatic hypotension. To investigate this possibility, a randomized, double-blind, placebo-controlled, dose-escalation study was conducted to assess the effects of ataciguat on orthostatic tolerance using both a standing test (highly functional) and a tilt table test (highly sensitive).

[3] = tested on: patients with mild-to-moderate calcific aortic valve stenosis; assay: Phase II clinical trial, six months, progression of valve disease; assay type: in vivo, human
Source text: Phase II clinical trial design: Patients with mild-to-moderate calcific aortic valve stenosis (valve area between 1.0 cm^2 and 2.0 cm^2) with well-preserved left ventricular function (ejection fraction>50%) and significant valve calcification (calcium levels>300 units by computed tomography scanning) were recruited for participation in a randomized, double-blind, placebo-controlled trial. After screening, patients were randomized into two groups: • (1) placebo treatment for a minimum of 6 months, or • (2) ataciguat treatment for a minimum of 6 months Patients underwent computed tomography measurements of aortic valve calcification, echocardiographic assessments of ventricular and aortic valve function, and DEXA scanning for assessment of systemic bone mineral density at baseline and at six month intervals after initiation of treatment.
LPA studies in humans with aortic valve calcification: Human plasma LPA levels were measured using a colorimetric, sandwich/quantitative ELISA assay (AB212165) after samples were diluted in diluent buffer. Computed tomography scanning was performed using clinical grade, high-resolution scanning methods that are well-established for assessment of aortic valve calcification. The calcium burden was measured from 3-dimensional, multi-slice images and expressed as arbitrary units (AU).
To determine whether ataciguat could slow progression of FCAVS, a randomized, double-blind, placebo-controlled study was conducted in patients with mild/moderate valvular disease. Key eligibility criteria for the study included valvular calcium levels above 300 AU, a valve area between 1.0 and 2.0 cm^2, an ejection fraction greater than 50%, and absence of congenital heart valve disease (full inclusion/exclusion criteria is shown in TABLE 1). Patients were randomized to placebo or ataciguat treatment for six months, and a subset of patients received treatment for 12 months. Importantly, there was no difference in measured hemodynamic, blood biochemistry, drug treatment, or comorbidity indices between treatment groups at baseline. Given the relatively short duration of follow-up, the primary outcome variable was the change in valvular calcium over time. Secondary and tertiary outcomes were aortic valve and left ventricular function, respectively.

[4] = 14 days, vs pre-treatment or placebo
[5] = 200 mg/day, all subjects combined
[6] = 200 mg/day, both sexes combined

O=C(Nc1ccc(S(=O)(=O)N2CCOCC2)cc1)c1cc(Cl)ccc1NS(=O)(=O)c1ccc(Cl)s1 [ataciguat, 5-chloro-2-[[(5-chloro-2-thienyl)sulfonyl]amino]-N-[4-(4-morpholinylsulfonyl)phenyl]-benzamide]
expression of osteogenic genes induced by BMP2 (e.g., osterix) (canonical BMP signaling): reduced | phospho-SMAD1/5/8 signaling (canonical BMP signaling) (canonical BMP signaling): reduced | ejection fraction ([1]; WD-fed mice, male and female): not improved further | canonical TGFβ signaling (SMAD2/3 phosphorylation) in valve tissue ([1]; both male and female mice): increased | Col1a1 expression (mRNA) ([1]; female mice): significantly reduced | expression of Col15a1 (mRNA) ([1]; female mice): tended to be reduced | relative collagen fiber thicknesses ([1]; female mice): increase the fraction of thinner fibers | aortic valve function (cusp separation distance by echocardiography), male versus female ([1]; long-term treatment): only male mice received a therapeutic benefit | calcification in valve tissue ([1]; male and female animals): reduced | SMAD1/5/8 phosphorylation in valve tissue ([1]; male and female mice, three months): significantly attenuated | markers of osteogenesis Runx2 and SPP1 (mRNA) ([1]; male and female mice, three months, RT-PCR): reduced | diastolic function (E/e′) ([1]; male mice): significantly improved | expression of Col15a1 (mRNA) ([1]; male mice): increased | expression of collagen 1a1 (mRNA) ([1]; male mice): did not significantly affect | valvular calcium, male versus female ([1]; male mice compared with female mice): Greater reductions in valvular calcium | progression of valvular dysfunction and associated reductions in left ventricular diastolic function ([1]; male mice only, long-term treatment): significantly attenuated | relative collagen fiber thicknesses ([1]; male mice): did not impact | MMP2 expression ([1]; male or female mice): not altered | pVASP^239 in aortic valve tissue ([1]; mice of both genders, 150 ppm in food, immunohistochemistry): significantly increased | blood pressure ([1]; mice of either gender, 150 ppm in food): did not alter | expression of the SMAD2/3 target genes CTGF and COL1A1 ([1]; only in female mice): paradoxically reduced | seated systolic and diastolic blood pressure ([2]; 100 mg/day, 14 days): significantly reduced | seated systolic and diastolic blood pressure ([2]; 200 mg/day, 14 days): did not have a significant effect | supine systolic and diastolic blood pressure ([2]; 14 days): significantly reduced | changes in heart rate upon standing ([2]; 14 days, seated to standing): did not significantly or consistently alter | changes in systolic and diastolic blood pressure upon standing ([2]; 14 days, seated to standing): did not significantly or consistently alter | blood pressure responses to head-up tilt [2, 4]: did not consistently or significantly alter | heart rate responses to head-up tilt [2, 4]: did not consistently or significantly alter | resting blood pressure ([2]; either dose, 14 days): did not significantly alter | tolerability (side effects and blood pressure regulation) ([2]; humans): well tolerated | changes in aortic valve area, male versus female patients ([3]; 200 mg/day): therapeutic benefit was predominantly conferred to male patients | changes in peak transvalvular velocity ([3]; 200 mg/day): negligible impact | aortic pulse pressure (index of arterial stiffness), seated [3, 5]: attenuated | left ventricular diastolic function (E/e′ or E/A ratio) [3, 5]: attenuate further progression of diastolic dysfunction | left ventricular systolic function (ejection fraction or stroke volume) [3, 5]: prevent the decline in left ventricular function | changes in aortic valve area [3, 6]: can attenuate progression of aortic valve dysfunction | progression of valve calcification [3, 6]: significantly attenuated | left ventricular stroke volume ([3]; 200 mg/day, female subjects): potential worsening | left ventricular systolic function ([3]; 200 mg/day, female subjects): no consistent benefit | left ventricular diastolic function (E/e′ or E/A ratio) ([3]; 200 mg/day, females): negligible therapeutic benefit | pulse pressure ([3]; 200 mg/day, females): no apparent therapeutic benefit | progression of valve calcification, male versus female patients ([3]; 200 mg/day, male patients compared to females): much greater therapeutic benefit | left ventricular diastolic function (E/e′ or E/A ratio) ([3]; 200 mg/day, male subjects): predominant recipients of any therapeutic benefit | left ventricular systolic function (ejection fraction or stroke volume) ([3]; 200 mg/day, male subjects): improved left ventricular systolic function | pulse pressure ([3]; males, compared to placebo): reduction in pulse pressure | aortic valve function vs baseline ([3]; p=0.24 vs baseline): did not worsen significantly | changes in valvular calcium in relation to baseline plasma LPA ([3]; patients with higher vs lower baseline plasma LPA): tended to receive greater therapeutic benefit
